Measurements taken from patent publication US20240109881A1, “Heteroaryl Compounds as Ligand Directed Degraders of IRAK4” (Bristol-Myers Squibb Company, priority 2022, published 2024).
pEC50: −log10 of the molar value. Structures can show the parent of a compound that is named as a salt.

Legend:
IRAK4 [1] = target: T1, IRAK4 (Homo sapiens, UniProt Q9NWZ3); experiment: ALE THP1 HTRF (Advanced Lipoxidation End Product THP1 Homogeneous Time Resolved Fluorescence); assay type: cell-based; conditions: THP1 cells
T1 construct: endogenous in cells; host or cells: THP-1 cells
T1 sequence (Q9NWZ3 1-460): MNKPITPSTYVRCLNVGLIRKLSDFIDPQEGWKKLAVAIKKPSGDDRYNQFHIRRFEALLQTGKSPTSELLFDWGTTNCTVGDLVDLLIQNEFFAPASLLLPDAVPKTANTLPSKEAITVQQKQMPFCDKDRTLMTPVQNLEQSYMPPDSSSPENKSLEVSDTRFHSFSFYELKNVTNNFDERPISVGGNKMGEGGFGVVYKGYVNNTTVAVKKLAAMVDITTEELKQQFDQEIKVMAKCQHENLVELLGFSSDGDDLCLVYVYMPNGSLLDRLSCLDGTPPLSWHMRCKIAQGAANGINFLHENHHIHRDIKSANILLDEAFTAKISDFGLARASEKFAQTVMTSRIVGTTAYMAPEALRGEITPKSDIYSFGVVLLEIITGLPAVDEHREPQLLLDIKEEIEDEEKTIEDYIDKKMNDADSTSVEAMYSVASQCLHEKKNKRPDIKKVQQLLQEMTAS
How it was run: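 HTRF read-out of IRAK4 protein: anti-IRAK4 d2 and cryptate antibody pair added to BCA-normalized lysates, overnight dark room-temperature incubation. Lysis ran 45 min with shaking at room temperature; buffer, cryptate-only and negative controls included.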

IRAK4 [2] = target: T1, IRAK4; experiment: LVL THP1 HTRF (THP1 Homogeneous Time Resolved Fluorescence); assay type: cell-based; conditions: THP1 cells, 18 h incubation with compound
How it was run: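 IRAK4 HTRF read-out (665/615 nm ratio, anti-IRAK4 d2 acceptor and K donor, 18 h dark incubation at room temperature) on lysates of THP-1 cells. Cells were treated 18 h at 37° C. with 20 nL compound in DMSO, in colorless RPMI with 10% FBS, with a duplicate CTG plate.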

[3] = Pharmacokinetic studies in mice (plasma PK, IV and PO); assay type: in vivo; conditions: female C57B16 mice
Protocol: Due to the higher molecular weight and lipophilicity, targeted protein degraders generally occupy a physiochemical property space that is beyond Lipinski's rule of 5 and as consequence are expected to have poor oral bioavailability and overall pharmacokinetic properties. […] The plasma pharmacokinetics (PK) of P-394, P-155, P-139, and P-160 were characterized in female C57B16 mice following intravenous (IV; 0.5 mg/kg) administration. Plasma from the tail vein was withdrawn in composite fashion: one group of mice (n=3) provided samples at 2 min, 30 min, 2 h, and 8 h, while another group (n=3) provided samples at 15 min, 1 h, 4 h, and 24 h. The concentrations of test article in these samples were measured using reverse-phase LC-MS-MS and then plotted as a function of time. The resulting concentration-time data was processed using noncompartmental analysis for the calculation of clearance (Cl), volume of distribution at steady state (Vss), half-life, mean residence time (MRT) and area under the time curve (AUC).
Similarly, the PK was characterized following oral (PO; 3 mg/kg) administration. Again, plasma from the tail vein was withdrawn in composite fashion: one group of mice (n=3) provided samples at 15 min, 1 h, 4 h, and 8 h, while another group (n=3) provided samples at […], 2 h, and 24 h. Oral bioavailability (FPO) was calculated by comparing the results of the studies described, dividing the dose-normalized AUCLAST,PO by the dose-normalized AUCLAST,IV.

[4] = mouse, 0.5 mg/kg, IV 0.50 mg/kg, plasma

ALE THP1 HTRF YMIN (IRAK4 [1]): 5.8%
pEC50 (IRAK4 [1]): 8.40
LVL THP1 HTRF YMIN (IRAK4 [2]): 0.7%
DC50 (IRAK4 [2]; read-out: LVL THP1 HTRF EC50): 4 nM
FPO ([3]; PO 3.0 mg/kg vs IV 0.50 mg/kg, dose-normalized AUCLAST): 31.6%
AUC(0-t) [3, 4]: 0.739 µM·h
MRT [3, 4]: 3.8 h
half-life [3, 4]: 3.2 h
clearance ([3]; mouse, 0.5 mg/kg, IV 0.50 mg/kg, plasma, read-out: Clp): 14.9 mL/min/kg
Vd ([3]; mouse, 0.5 mg/kg, IV 0.50 mg/kg, plasma, read-out: VSS): 3.37 L/kg
AUC(0-t) ([3]; mouse, PO 3.0 mg/kg, plasma): 1.4 µM·h
Cmax ([3]; mouse, PO 3.0 mg/kg, plasma): 245 nM
Tmax ([3]; mouse, PO 3.0 mg/kg, plasma): 2 h
Structure (SMILES): C[C@H](C#N)Nc1cc(-n2ncc3cc(C#N)c(N)nc32)ncc1-n1cc([C@H]2CC[C@H](CCN3CCN(c4ccc(C5CCC(=O)NC5=O)cc4)CC3)CC2)nn1 (stereo partly drawn) [P-160, 6-amino-1-(4-(((R)-1-cyanoethyl)amino)-5-(4-((1r,4R)-4-(2-(4-(4-(2,6-dioxopiperidin-3-yl)phenyl)piperazin-1-yl)ethyl)cyclohexyl)-1H-1,2,3-triazol-1-yl)pyridin-2-yl)-1H-pyrazolo[3,4-b]pyridine-5-carbonitrile, TFA]
